Experiment [1] in a line: antiviral protection against BTV-induced cell death – arbovirus, BSR cells, confirmation (AID 1250).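 Further: protection from viral cytopathic effect measured as cell viability by ATP luminescence.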 The experiment is classed as functional.
Experiment [2] concerns the target T1, NADPH oxidase 1 (Homo sapiens, UniProt Q9Y5S8).
T1 sequence (Q9Y5S8 whole entry): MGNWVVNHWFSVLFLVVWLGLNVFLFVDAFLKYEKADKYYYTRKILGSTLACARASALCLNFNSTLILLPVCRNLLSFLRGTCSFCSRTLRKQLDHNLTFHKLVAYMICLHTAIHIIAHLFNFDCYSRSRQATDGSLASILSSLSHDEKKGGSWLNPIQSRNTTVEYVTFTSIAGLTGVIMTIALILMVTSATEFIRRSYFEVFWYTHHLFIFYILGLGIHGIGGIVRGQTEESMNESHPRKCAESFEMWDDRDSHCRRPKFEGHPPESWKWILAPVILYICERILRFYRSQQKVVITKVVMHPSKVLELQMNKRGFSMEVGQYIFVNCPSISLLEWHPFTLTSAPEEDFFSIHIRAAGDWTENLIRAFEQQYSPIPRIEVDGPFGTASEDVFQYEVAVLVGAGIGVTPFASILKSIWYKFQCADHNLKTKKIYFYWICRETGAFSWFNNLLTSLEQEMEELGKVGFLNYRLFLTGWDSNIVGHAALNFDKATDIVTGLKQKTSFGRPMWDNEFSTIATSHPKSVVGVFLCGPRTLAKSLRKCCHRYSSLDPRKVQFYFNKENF
Description: Late-stage luminescence-based cell-based dose response assay to identify inhibitors of NADPH oxidase 1 (NOX1): Purchased analogs 2. It counts as functional.

Experiment [3] deals with T1, NADPH oxidase 1. Description: Late-stage luminescence-based cell-based dose response assay to identify inhibitors of NADPH oxidase 1 (NOX1): Synthesized analogs 2. It counts as functional.
For experiment [4], the target named is T2, Microphthalmia-associated transcription factor (Homo sapiens, UniProt O75030).
T2 sequence (O75030 whole entry): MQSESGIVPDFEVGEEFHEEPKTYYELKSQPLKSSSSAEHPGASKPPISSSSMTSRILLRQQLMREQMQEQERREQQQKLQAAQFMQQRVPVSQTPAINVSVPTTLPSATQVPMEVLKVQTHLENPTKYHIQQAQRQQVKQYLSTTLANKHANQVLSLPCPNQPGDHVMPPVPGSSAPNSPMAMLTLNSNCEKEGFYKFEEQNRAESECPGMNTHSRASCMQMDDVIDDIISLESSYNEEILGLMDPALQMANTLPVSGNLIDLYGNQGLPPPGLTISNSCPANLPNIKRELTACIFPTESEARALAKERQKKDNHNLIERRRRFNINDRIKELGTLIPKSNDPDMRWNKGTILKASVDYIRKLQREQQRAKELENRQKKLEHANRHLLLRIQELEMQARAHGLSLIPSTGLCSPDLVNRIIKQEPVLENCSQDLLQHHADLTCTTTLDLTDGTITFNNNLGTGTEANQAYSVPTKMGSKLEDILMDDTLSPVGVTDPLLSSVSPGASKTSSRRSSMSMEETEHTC
Description: reducers of TRPM1 reporter luminescence, concentration series – cell-based, SK-MEL-5, cherry-picked, set 3, MITF inhibitor project, dose response (AID 493073).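 Further: SK-MEL-5 melanoma cells with luciferase driven by the MITF target TRPM1 promoter.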 It counts as functional.

Experiment [5] in a line: viability of HCT116 lacking mutant beta-catenin – cell-based, human colon tumor, dose response (AID 1045).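 Further: HCT116 colon tumor cells with beta catenin knocked out; cells exposed to compound for 60 hours.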 It counts as functional.
Experiment [6] concerns the target Sphingosine 1-phosphate receptor 1 (Homo sapiens, UniProt P21453). The experiment is classed as functional.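 Further: Tango beta-arrestin reporter U2OS cells stimulated with S1P near its EC80; inhibitor potency meaning antagonism of receptor activation by the natural agonist.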
Experiment [7] addresses Sphingosine 1-phosphate receptor 4 (Homo sapiens, UniProt O95977). Description: Fluorescence dose response cell-based high throughput screening assay for antagonists of the Sphingosine 1-Phosphate Receptor 4 (S1P4). [Related pubchem assays: 1524 (Confirmation in triplicates.), 1510 (Primary screen.)]. It counts as functional.
The nature of experiment [8]: reduced cellular PGC1a acetyl-lysine signal – cell-based, cherry-picked samples, dose response (AID 720514).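 Further: potency may reflect raised or lowered acetylation signal.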 It counts as functional.
Experiment [9] can be described thus: viability of PTEN-deleted HCT116 cells – cell-based, HCT116 PTEN knockout, dose response (AID 1047).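 Further: HCT116 colon tumor cells with PTEN knocked out; cells exposed to compound for 60 hours before readout; potency for loss of cell viability measured by luminescence.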 It counts as functional.
The target in experiment [10] is Neuropeptide Y receptor type 2 (Homo sapiens, UniProt P49146). It counts as functional, cell-based.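 Further: HEK293 cells expressing the receptor and a CNG channel; stimulus was NPY near EC95 followed by isoproterenol to raise cAMP; antagonist potency measured as restoring cAMP signal that NPY suppresses.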
Neuropeptide Y receptor type 2, sequence (P49146 whole entry): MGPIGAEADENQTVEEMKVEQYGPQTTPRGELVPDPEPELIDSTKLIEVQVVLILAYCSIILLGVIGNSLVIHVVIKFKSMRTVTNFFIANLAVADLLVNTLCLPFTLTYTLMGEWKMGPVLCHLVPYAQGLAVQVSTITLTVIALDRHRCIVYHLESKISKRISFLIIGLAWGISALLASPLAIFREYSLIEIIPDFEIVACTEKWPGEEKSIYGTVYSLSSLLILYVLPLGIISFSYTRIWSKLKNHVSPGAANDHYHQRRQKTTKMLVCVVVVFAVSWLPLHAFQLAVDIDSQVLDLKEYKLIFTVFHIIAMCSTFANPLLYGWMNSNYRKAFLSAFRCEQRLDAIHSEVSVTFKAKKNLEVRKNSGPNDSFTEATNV
In experiment [11] the target is Neuropeptide Y receptor type 1 (Homo sapiens, UniProt P25929). It counts as functional.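 Further: HEK293 cells with a CNG channel challenged with NPY then isoproterenol; potency as antagonist that reverses NPY suppression of cAMP signal.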
Neuropeptide Y receptor type 1, sequence (P25929 whole entry): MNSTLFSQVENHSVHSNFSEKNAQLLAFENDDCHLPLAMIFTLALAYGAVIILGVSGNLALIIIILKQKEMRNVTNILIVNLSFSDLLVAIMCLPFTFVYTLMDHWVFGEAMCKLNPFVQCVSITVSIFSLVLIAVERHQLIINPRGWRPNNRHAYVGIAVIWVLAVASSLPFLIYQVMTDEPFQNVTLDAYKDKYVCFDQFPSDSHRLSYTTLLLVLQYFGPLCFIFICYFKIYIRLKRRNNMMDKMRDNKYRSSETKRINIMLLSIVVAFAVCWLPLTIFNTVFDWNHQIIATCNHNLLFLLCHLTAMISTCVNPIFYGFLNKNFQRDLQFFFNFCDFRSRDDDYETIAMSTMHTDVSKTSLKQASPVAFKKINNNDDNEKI
Experiment [12] is described as follows: M. tuberculosis H37Rv growth inhibitors, H37Rv strain (AID 1626). The experiment is classed as functional.
In another experiment the target is Bcl-2-like protein 1 (Homo sapiens, UniProt Q07817). Description: blockers of BCLXL peptide binding – biochemical, fluorescence polarization, 1536-well, selectivity assay for MCL1 inhibitor project, dose response (AID 2218).
Bcl-2-like protein 1, sequence (Q07817 whole entry): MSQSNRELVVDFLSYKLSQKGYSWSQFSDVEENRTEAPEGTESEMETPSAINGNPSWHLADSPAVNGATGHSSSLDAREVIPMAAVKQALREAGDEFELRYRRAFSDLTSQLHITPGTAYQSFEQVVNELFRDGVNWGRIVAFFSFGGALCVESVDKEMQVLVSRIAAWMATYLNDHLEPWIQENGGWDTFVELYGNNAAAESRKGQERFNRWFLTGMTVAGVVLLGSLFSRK
Experiment [13] deals with Induced myeloid leukemia cell differentiation protein Mcl-1 (Homo sapiens, UniProt Q07820). Description: blockers of MCL1 binding to BIM peptide – biochemical, fluorescence polarization, BIM-BH3 peptide, 1536-well, dose response (AID 2217). On the technique in general: In fluorescence polarisation assays a small probe gives low polarisation when free and higher when bound to something large.
Induced myeloid leukemia cell differentiation protein Mcl-1, sequence (Q07820 whole entry): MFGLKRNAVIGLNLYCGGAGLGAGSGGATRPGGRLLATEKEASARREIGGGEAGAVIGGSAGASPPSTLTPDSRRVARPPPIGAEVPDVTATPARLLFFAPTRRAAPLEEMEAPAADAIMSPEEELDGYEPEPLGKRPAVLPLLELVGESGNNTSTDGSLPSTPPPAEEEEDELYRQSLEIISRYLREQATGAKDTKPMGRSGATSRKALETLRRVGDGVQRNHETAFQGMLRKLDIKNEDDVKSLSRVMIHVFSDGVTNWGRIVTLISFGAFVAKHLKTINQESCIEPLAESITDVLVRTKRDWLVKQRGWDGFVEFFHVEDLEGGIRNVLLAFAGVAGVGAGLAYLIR

Experiment [14] concerns the target T3, Small ubiquitin-related modifier 2 (Homo sapiens, UniProt P61956). Description: SUMO2 binding disruption by SUMO1 hits – biochemical, FRET, human SUMO2, uHTS hits, selectivity assay for SUMO1 interaction inhibitor project, dose response (AID 624384). It counts as functional. The following applies: read-out: IC50_Mean.
The target in experiment [15] is T4, Small ubiquitin-related modifier 1 (Homo sapiens, UniProt P63165). Description: SUMO1 protein-protein binding blockers, potency – biochemical, FRET, dose response (AID 624383). The experiment is classed as functional. The following applies: read-out: IC50_Mean.
T4 sequence (P63165 whole entry): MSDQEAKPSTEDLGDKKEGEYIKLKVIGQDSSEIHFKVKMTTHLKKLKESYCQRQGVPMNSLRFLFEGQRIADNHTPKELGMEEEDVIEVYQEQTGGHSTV
Experiment [16] concerns the target T3, Small ubiquitin-related modifier 2. Description: disruption of SUMO2 interaction with SIM peptide – biochemical, fluorescence polarization, uHTS hits, selectivity assay for SUMO1 interaction inhibitor project, dose response (AID 624385). The conditions noted are these: read-out: IC50_Mean. The experiment is classed as functional.
In experiment [17] the target is Acetyl-CoA acetyltransferase/HMG-CoA reductase (Enterococcus faecalis, UniProt Q9FD70). Description: class II HMG-CoA reductase inhibition potency – biochemical, Enterococcus faecalis, confirmation (AID 1233). It counts as functional.
The target of experiment [18] is T4, Small ubiquitin-related modifier 1. Description: SUMO1 protein interaction blockers, potency – biochemical, fluorescence polarization, uHTS hits, dose response (AID 624382). The experiment is classed as functional. The following applies: read-out: IC50_Mean.
Experiment [19] has as its target Eukaryotic translation initiation factor 4E (Mus musculus, UniProt P63073). Description: blockers of eIF4G binding by eIF4E – biochemical, TR-FRET, dose response (AID 855).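 Further: potency for disrupting eIF4E binding to eIF4GI seen as loss of FRET.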 It counts as functional.

Each structure is given as a SMILES string. Activity calls are given as the source filed them.

T3 sequence (P61956 whole entry): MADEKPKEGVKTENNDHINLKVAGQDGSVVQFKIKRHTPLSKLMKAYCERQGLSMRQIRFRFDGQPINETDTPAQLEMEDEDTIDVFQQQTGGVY
Eukaryotic translation initiation factor 4E, sequence (P63073 whole entry): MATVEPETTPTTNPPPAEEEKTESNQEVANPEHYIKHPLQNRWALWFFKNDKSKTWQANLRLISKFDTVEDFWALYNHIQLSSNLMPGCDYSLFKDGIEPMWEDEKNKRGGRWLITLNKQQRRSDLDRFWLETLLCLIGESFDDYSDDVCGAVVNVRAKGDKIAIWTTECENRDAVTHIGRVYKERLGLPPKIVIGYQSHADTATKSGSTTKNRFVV
Sphingosine 1-phosphate receptor 4, sequence (O95977 whole entry): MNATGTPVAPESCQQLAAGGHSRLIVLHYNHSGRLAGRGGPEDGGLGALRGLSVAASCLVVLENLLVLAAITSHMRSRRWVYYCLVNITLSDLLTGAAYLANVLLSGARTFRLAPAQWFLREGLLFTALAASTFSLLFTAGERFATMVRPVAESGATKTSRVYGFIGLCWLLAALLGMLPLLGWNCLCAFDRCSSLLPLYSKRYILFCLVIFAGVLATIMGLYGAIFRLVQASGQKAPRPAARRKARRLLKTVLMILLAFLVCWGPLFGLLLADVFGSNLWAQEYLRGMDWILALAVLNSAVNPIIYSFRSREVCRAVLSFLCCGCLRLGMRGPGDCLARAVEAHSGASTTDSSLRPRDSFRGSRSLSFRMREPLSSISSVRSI
Sphingosine 1-phosphate receptor 1, sequence (P21453 whole entry): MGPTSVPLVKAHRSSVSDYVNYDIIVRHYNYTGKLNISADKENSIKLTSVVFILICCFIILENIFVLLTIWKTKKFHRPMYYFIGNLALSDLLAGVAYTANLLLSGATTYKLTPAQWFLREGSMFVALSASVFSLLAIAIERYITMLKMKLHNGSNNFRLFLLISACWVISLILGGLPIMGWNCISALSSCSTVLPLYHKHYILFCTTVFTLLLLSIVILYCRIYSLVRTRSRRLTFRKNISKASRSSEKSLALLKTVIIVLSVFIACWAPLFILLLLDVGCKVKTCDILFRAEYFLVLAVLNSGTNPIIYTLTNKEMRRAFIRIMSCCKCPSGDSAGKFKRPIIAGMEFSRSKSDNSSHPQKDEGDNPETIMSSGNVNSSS

As to `CCc1cc(C(=O)O)c(NC(=O)C(c2ccccc2)c2ccccc2)s1`, the IC50 in experiment [1] is 23.2 µM (active).

For `Cc1cc(Cl)ccc1NC(=S)NNC(=S)Nc1ccc(Cl)cc1C`, at NADPH oxidase 1 [2], the IC50 is 3.51 µM (active).

In the case of `O=C(c1ccccc1)c1ccccc1N1c2ccccc2Sc2ccccc21`, the IC50 against NADPH oxidase 1 [3] is reported as > 50 µM (not active).

For the compound `Cc1ccc(C)c(C(=O)Cn2ncc(Cl)c(Cl)c2=O)c1`, the AC50 (in general, the midpoint of the concentration-response curve, whichever way the signal moves) in experiment [4] was 14.5 µM (active); in experiment [8] it was 8.4 µM (active). Also, the EC50 (in general, the midpoint of the concentration-response curve) in experiment [5] is 2.35 µM (active); in experiment [9] it was 3.56 µM (active). The results for the IC50 in [6] and in experiment [7] were 12.1 µM (not active) and 2.99 µM (active), respectively.

On to `CCN(CC)CC#CCC(C)(c1ccccc1)c1ccccc1`, for which the IC50 was 6.17 µM (active) in [10] and < 12 µM (not active) in experiment [11].

Consider `CCOC(=O)c1ccc(NCc2ccc(N(C)C)cc2)cc1`, for which the IC50 in experiment [12] is > 100 µM (active).

For `Cc1ccc(-c2csc3ncn(CC#N)c(=O)c23)cc1C`, the IC50 (on Bcl-2-like protein 1; in [13]) was > 109 µM (not active) in each case.

Turning to `O=C(CSc1nc(-c2ccccc2)nc2c1Cc1ccccc1O2)Nc1ccc(C(=O)O)cc1`, the IC50 is 6.38 µM (active) in [14]; 5.3 µM (active) in [15]; 35.1 µM (inactive) in [16]; 164 µM (active) in experiment [17]; 23.1 µM (inactive) in experiment [18]; 17.1 µM (active) in experiment [19].

The values are drawn from ChEMBL document CHEMBL1201862, “PubChem BioAssay data set” (2004).
